Experimental data from the supplement of paper PMC6411743.

These targets were tested with Nc1ncnc2c1ncn2[C@@H]1O[C@H](COP(=O)(O)OP(=O)(O)OP(=O)(O)O)[C@@H](O)[C@H]1O [adenosine triphosphate] (assay: pEC50 of ATP-induced change in protein thermal stability (2D-TPP)).
How it was run: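 Each of three independent experiments used Jurkat crude lysate given five concentrations including vehicle (10 min, room temperature), followed by 3 min at one of 12 temperatures from 42 to 63.9 °C and NP40 with benzonase (60 min, 4 °C). TMT LC-MS/MS quantified soluble protein after ultracentrifugation, expressed as fold changes against vehicle at each temperature with median normalisation. For pEC50, dose-response curves were fitted per replicate over adjacent temperature pairs, and hits were called through permutation-based false discovery rate control.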
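Also: lysate dosed with Na-ATP at 0 0.005 0.05 0.5 and 2 mM.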

Chain of UniProt P39687 (P39687 whole entry): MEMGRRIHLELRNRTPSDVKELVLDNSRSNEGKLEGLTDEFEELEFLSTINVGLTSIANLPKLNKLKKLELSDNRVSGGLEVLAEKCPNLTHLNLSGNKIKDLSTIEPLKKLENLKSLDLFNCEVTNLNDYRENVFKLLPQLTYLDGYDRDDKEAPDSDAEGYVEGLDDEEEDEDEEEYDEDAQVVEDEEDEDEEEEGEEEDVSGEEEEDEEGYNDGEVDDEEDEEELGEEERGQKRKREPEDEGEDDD
Chain of UniProt Q9BUP0 (Q9BUP0 whole entry): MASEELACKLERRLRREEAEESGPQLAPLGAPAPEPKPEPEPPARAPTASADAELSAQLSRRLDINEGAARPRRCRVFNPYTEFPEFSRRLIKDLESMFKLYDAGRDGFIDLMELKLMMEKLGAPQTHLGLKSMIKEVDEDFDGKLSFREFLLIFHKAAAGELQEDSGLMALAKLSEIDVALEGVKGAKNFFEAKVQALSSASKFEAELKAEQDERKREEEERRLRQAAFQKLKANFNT

First: SAE1 (effect direction: stabilized) (UniProt Q9UBE0)
Second: UBLCP1 (effect direction: destabilized) (UniProt Q8WVY7)
Chain of UniProt Q8WVY7 (Q8WVY7 whole entry): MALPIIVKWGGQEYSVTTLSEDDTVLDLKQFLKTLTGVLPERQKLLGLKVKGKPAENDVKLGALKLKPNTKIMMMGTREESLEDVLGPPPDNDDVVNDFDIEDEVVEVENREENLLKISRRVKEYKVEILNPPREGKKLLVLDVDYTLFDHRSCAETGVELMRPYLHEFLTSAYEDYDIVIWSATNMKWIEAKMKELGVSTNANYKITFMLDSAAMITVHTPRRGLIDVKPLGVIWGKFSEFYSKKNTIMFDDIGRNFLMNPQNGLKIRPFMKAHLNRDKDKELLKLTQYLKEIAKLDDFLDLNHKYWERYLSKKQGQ
The pEC50 of the first is lower: under 2.7 for the first, 2.88 for the second.

“H1FX (effect direction: destabilized) (UniProt Q92522)” and “EIF3K (effect direction: stabilized) (UniProt Q9UBQ5)” cannot be ordered by pEC50: under 2.7 for the first, under 2.7 for the second.

Compared with “SNX5 (effect direction: stabilized) (UniProt Q9Y5X3)”, “KIF1B (effect direction: stabilized) (UniProt O60333)” is higher in pEC50: under 2.7 for the first, 3.68 for the second.

Going from “CLCN7 (effect direction: stabilized) (UniProt P51798)” to “EDF1 (effect direction: stabilized) (UniProt O60869)”, the pEC50 falls from 3.4 to under 2.7.

First: FN3KRP (effect direction: stabilized) (UniProt Q9HA64)
Second: LARP7 (effect direction: stabilized) (UniProt Q4G0J3)
The pEC50 of the first is higher: 4.17 for the first, 3.03 for the second.

“SSB (effect direction: stabilized) (UniProt P05455)” and “SNRPB (effect direction: destabilized) (UniProt P14678)” cannot be ordered by pEC50: under 2.7 for the first, under 2.7 for the second.

“PAPOLA (effect direction: stabilized) (UniProt P51003)” and “CINP (effect direction: stabilized) (UniProt Q9BW66)” are within 0.2 log units of each other in pEC50: 2.95 for the first, 2.98 for the second.

Compared with “DYNC1H1 (effect direction: stabilized) (UniProt Q14204)”, “CCT5 (effect direction: stabilized) (UniProt P48643)” is lower in pEC50: 3.39 for the first, 3.02 for the second.

Going from “CAP1 (effect direction: stabilized) (UniProt Q01518)” to “ARPC5L (effect direction: stabilized) (UniProt Q9BPX5)”, the pEC50 falls from 5 to 4.05.

First: NCL (effect direction: stabilized) (UniProt P19338)
Second: SMARCC1 (effect direction: stabilized) (UniProt Q92922)
Chain of UniProt Q92922 (Q92922 whole entry): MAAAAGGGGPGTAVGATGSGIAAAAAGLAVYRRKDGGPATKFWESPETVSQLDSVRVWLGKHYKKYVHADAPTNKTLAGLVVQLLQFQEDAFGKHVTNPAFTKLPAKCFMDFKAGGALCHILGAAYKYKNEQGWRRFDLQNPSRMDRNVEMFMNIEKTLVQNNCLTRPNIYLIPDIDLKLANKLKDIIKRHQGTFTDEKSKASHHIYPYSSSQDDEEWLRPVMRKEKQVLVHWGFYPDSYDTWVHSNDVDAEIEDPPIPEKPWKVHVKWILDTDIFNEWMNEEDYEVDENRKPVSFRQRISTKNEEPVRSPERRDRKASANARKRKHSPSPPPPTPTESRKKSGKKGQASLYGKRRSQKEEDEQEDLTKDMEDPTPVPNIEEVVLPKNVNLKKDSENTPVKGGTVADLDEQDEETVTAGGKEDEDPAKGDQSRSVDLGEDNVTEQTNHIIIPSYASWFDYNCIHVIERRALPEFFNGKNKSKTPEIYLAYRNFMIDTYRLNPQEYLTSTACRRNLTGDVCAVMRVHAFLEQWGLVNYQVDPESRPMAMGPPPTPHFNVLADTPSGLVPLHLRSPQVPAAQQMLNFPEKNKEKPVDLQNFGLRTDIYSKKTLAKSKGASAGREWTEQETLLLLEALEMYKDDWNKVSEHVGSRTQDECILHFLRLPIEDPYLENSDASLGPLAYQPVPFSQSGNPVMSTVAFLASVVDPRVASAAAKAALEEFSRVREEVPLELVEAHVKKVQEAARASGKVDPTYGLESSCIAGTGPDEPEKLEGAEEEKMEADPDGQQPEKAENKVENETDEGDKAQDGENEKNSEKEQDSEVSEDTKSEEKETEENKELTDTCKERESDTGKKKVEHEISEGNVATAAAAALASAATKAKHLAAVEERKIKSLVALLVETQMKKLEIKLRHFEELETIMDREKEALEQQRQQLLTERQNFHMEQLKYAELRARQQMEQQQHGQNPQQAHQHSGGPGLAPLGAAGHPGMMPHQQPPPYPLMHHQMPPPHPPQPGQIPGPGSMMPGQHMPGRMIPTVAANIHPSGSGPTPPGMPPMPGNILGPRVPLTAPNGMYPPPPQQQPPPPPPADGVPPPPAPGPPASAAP
The pEC50 of the first is lower: under 2.7 for the first, 3.43 for the second.

First: PA2G4 (effect direction: destabilized) (UniProt Q9UQ80)
Second: UniProt Q13043 (effect direction: stabilized)
Sequence (Q13043 whole entry): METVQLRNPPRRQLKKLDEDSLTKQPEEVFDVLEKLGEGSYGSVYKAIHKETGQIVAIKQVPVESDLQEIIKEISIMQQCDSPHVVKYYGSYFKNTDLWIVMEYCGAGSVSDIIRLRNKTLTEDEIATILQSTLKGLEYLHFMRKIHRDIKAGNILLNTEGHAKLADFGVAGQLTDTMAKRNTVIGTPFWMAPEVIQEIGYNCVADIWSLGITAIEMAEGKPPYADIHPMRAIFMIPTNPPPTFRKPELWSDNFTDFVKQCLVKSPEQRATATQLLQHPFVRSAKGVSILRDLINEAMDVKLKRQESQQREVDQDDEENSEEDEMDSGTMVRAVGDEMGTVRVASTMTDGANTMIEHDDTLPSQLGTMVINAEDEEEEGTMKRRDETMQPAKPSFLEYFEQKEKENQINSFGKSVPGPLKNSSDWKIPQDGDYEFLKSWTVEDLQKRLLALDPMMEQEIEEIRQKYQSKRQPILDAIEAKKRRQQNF
The pEC50 of the first is lower: 3.17 for the first, 3.38 for the second.

“EIF5 (effect direction: stabilized) (UniProt P55010)” and “Q5JWF2|P63092 (effect direction: stabilized) (UniProt P63092+Q5JWF2)” cannot be ordered by pEC50: under 2.7 for the first, under 2.7 for the second.

First: RRP9 (effect direction: destabilized) (UniProt O43818)
Second: PACSIN2 (effect direction: stabilized) (UniProt Q9UNF0)
The pEC50 of the first is higher: 2.98 for the first, under 2.7 for the second.

Compared with “UniProt O95319 (effect direction: stabilized)”, “TRMU (effect direction: stabilized) (UniProt O75648)” is higher in pEC50: under 2.7 for the first, 3.31 for the second.

“CAB39 (effect direction: stabilized) (UniProt Q9Y376)” and “ENO2 (effect direction: destabilized) (UniProt P09104)” are within 0.2 log units of each other in pEC50: 3.15 for the first, 2.99 for the second.

First: PMS2 (effect direction: stabilized) (UniProt P54278)
Second: CAPNS1 (effect direction: stabilized) (UniProt P04632)
Chain of UniProt P04632 (P04632 whole entry): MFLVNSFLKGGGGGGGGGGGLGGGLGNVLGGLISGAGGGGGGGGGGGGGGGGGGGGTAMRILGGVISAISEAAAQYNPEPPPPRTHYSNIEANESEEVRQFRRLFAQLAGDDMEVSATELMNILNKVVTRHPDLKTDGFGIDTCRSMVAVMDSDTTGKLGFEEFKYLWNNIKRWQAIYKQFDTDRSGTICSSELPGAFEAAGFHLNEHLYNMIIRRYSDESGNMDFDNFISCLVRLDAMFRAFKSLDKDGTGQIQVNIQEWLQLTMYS
The pEC50 of the first is higher: 3.21 for the first, 2.86 for the second.

First: SPTBN1 (effect direction: stabilized) (UniProt Q01082)
Second: UniProt Q9BSJ8 (effect direction: stabilized)
The pEC50 of the first is lower: under 2.7 for the first, 3.08 for the second.

First: MOV10 (effect direction: destabilized) (UniProt Q9HCE1)
Second: SF3A1 (effect direction: stabilized) (UniProt Q15459)
The pEC50 of the first is higher: 3.24 for the first, 2.79 for the second.

“EFHD1 (effect direction: destabilized) (UniProt Q9BUP0)” and “GLB1 (effect direction: stabilized) (UniProt P16278)” are within 0.2 log units of each other in pEC50: 3.18 for the first, 3.35 for the second.

First: TUT1 (effect direction: stabilized) (UniProt Q9H6E5)
Second: OSBPL8 (effect direction: stabilized) (UniProt Q9BZF1)
The pEC50 of the first is lower: 2.93 for the first, 3.4 for the second.

Compared with “PRKAR1B (effect direction: stabilized) (UniProt P31321)”, “TRAP1 (effect direction: stabilized) (UniProt Q12931)” is lower in pEC50: 3.85 for the first, 3.33 for the second.

Compared with “CTNNBL1 (effect direction: stabilized) (UniProt Q8WYA6)”, “MDH1 (effect direction: stabilized) (UniProt P40925)” is higher in pEC50: 3.08 for the first, 5 for the second.

Compared with “NSDHL (effect direction: stabilized) (UniProt Q15738)”, “CLYBL (effect direction: destabilized) (UniProt Q8N0X4)” is higher in pEC50: under 2.7 for the first, 2.92 for the second.

First: GLUD1 (effect direction: stabilized) (UniProt P00367)
Chain of UniProt P00367 (P00367 whole entry): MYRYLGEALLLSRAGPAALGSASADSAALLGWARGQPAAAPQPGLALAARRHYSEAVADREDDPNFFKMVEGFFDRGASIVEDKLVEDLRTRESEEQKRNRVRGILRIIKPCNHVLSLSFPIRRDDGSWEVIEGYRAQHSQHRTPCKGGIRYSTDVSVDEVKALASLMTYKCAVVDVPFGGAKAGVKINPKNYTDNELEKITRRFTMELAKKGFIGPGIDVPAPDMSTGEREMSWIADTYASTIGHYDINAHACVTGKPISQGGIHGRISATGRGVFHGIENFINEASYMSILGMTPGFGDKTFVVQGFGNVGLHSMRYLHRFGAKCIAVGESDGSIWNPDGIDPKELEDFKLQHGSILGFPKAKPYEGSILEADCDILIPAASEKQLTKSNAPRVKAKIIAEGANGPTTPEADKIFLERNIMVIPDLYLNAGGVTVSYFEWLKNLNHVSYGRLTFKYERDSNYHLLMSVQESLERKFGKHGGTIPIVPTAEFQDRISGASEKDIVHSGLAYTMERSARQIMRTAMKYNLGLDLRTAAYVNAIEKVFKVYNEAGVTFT
Second: UBE3A (effect direction: stabilized) (UniProt Q05086)
The pEC50 of the first is higher: 4.21 for the first, under 2.7 for the second.

“NAGK (effect direction: stabilized) (UniProt Q9UJ70)” and “OPA1 (effect direction: destabilized) (UniProt O60313)” are within 0.2 log units of each other in pEC50: 3.15 for the first, 3.09 for the second.

Compared with “PSMD11 (effect direction: stabilized) (UniProt O00231)”, “LEMD2 (effect direction: stabilized) (UniProt Q8NC56)” is lower in pEC50: 4.08 for the first, 3.8 for the second.

Compared with “FKBP8 (effect direction: stabilized) (UniProt Q14318)”, “MIER1 (effect direction: stabilized) (UniProt Q8N108)” is lower in pEC50: 3.36 for the first, under 2.7 for the second.

First: CLIC1 (effect direction: stabilized) (UniProt O00299)
Second: CSE1L (effect direction: stabilized) (UniProt P55060)
The pEC50 of the first is lower: under 2.7 for the first, 3.69 for the second.

Compared with “POLG2 (effect direction: destabilized) (UniProt Q9UHN1)”, “PCYT2 (effect direction: stabilized) (UniProt Q99447)” is lower in pEC50: 3.26 for the first, under 2.7 for the second.

First: DDX20 (effect direction: stabilized) (UniProt Q9UHI6)
Chain of UniProt Q9UHI6 (Q9UHI6 whole entry): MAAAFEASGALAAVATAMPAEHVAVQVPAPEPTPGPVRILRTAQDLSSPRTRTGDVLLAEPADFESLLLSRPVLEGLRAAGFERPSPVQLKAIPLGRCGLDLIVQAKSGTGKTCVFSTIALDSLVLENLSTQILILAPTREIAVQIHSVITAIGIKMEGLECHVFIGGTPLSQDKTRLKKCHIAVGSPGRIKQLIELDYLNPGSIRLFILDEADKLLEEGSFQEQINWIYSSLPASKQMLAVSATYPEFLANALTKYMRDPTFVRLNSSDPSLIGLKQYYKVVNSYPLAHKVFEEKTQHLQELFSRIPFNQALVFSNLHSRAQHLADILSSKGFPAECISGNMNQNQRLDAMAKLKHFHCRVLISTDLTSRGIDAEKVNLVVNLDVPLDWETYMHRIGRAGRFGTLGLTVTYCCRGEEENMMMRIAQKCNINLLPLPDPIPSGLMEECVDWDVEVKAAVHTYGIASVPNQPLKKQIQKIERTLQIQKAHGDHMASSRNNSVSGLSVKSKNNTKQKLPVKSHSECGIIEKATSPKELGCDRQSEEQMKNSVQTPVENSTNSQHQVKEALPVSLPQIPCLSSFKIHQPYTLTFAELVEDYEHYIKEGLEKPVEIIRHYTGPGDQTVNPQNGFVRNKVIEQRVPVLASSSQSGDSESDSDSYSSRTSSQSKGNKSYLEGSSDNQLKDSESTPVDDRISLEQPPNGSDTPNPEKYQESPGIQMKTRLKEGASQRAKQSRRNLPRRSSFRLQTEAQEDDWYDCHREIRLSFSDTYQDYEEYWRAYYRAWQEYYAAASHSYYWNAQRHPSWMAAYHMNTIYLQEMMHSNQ
Second: SH2D1A (effect direction: stabilized) (UniProt O60880)
The pEC50 of the first is higher: 3.48 for the first, under 2.7 for the second.

First: PSMD13 (effect direction: stabilized) (UniProt Q9UNM6)
Second: TARDBP (effect direction: stabilized) (UniProt Q13148)
Chain of UniProt Q13148 (Q13148 whole entry): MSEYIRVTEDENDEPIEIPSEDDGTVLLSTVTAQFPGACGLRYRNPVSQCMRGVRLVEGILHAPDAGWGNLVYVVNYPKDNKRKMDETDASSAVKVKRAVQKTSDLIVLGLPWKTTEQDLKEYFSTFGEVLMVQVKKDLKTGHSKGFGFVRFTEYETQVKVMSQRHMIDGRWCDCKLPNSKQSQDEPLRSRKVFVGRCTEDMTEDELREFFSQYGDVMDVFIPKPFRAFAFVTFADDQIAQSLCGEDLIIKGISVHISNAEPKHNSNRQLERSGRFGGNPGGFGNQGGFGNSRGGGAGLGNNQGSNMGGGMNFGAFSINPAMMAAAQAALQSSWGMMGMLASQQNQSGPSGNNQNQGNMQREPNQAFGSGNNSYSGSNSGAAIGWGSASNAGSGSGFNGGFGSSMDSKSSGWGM
The pEC50 of the first is higher: 4.14 for the first, 3.21 for the second.

Compared with “UniProt Q8N163 (effect direction: stabilized)”, “UniProt O43314 (effect direction: stabilized)” is higher in pEC50: 2.9 for the first, 4.16 for the second.

First: NMNAT1 (effect direction: stabilized) (UniProt Q9HAN9)
Second: UMPS (effect direction: stabilized) (UniProt P11172)
The pEC50 of the first is higher: 3.08 for the first, under 2.7 for the second.

Going from “PM20D2 (effect direction: stabilized) (UniProt Q8IYS1)” to “CS (effect direction: stabilized) (UniProt O75390)”, the pEC50 falls from 2.86 to under 2.7.

“IDH3A (effect direction: stabilized) (UniProt P50213)” and “UBE2O (effect direction: stabilized) (UniProt Q9C0C9)” cannot be ordered by pEC50: under 2.7 for the first, under 2.7 for the second.

Going from “UniProt P62195 (effect direction: stabilized)” to “HTATSF1 (effect direction: stabilized) (UniProt O43719)”, the pEC50 falls from 4.18 to under 2.7.

Going from “RAD51C (effect direction: stabilized) (UniProt O43502)” to “ANP32A (effect direction: stabilized) (UniProt P39687)”, the pEC50 falls from 3.46 to under 2.7.

First: PHKG2 (effect direction: stabilized) (UniProt P15735)
Chain of UniProt P15735 (P15735 whole entry): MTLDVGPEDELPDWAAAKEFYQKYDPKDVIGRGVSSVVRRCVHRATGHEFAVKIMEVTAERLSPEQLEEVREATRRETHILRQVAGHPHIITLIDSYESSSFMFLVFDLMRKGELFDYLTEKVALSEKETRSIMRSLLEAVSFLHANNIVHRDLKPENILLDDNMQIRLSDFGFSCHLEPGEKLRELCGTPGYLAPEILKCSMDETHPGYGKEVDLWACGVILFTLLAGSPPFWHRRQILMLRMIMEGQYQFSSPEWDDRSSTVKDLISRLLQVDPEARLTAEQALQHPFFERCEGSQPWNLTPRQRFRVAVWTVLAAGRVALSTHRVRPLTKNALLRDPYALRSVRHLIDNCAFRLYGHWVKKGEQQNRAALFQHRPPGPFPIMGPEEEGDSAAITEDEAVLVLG
Second: NAP1L4 (effect direction: stabilized) (UniProt Q99733)
The pEC50 of the first is higher: 2.96 for the first, under 2.7 for the second.

Compared with “SHKBP1 (effect direction: stabilized) (UniProt Q8TBC3)”, “HMGN4 (effect direction: stabilized) (UniProt O00479)” is higher in pEC50: 2.83 for the first, 3.52 for the second.

Compared with “DDB2 (effect direction: stabilized) (UniProt Q92466)”, “ACTR10 (effect direction: destabilized) (UniProt Q9NZ32)” is lower in pEC50: 3.2 for the first, under 2.7 for the second.

Compared with “ASNS (effect direction: stabilized) (UniProt P08243)”, “PSMD7 (effect direction: stabilized) (UniProt P51665)” is higher in pEC50: 3.18 for the first, 4.16 for the second.

“PMVK (effect direction: stabilized) (UniProt Q15126)” and “PI4K2A (effect direction: stabilized) (UniProt Q9BTU6)” are within 0.2 log units of each other in pEC50: 3.58 for the first, 3.54 for the second.

“TSTA3 (effect direction: stabilized) (UniProt Q13630)” and “HNRNPU (effect direction: stabilized) (UniProt Q00839)” are within 0.2 log units of each other in pEC50: 2.73 for the first, 2.9 for the second.

Going from “UniProt O43598 (effect direction: stabilized)” to “ENO3 (effect direction: destabilized) (UniProt P13929)”, the pEC50 falls from 3.25 to under 2.7.

Compared with “RAPGEF1 (effect direction: destabilized) (UniProt Q13905)”, “HSPA4 (effect direction: stabilized) (UniProt P34932)” is lower in pEC50: 2.88 for the first, under 2.7 for the second.

Target “XPO1 (effect direction: stabilized) (UniProt O14980)” has a pEC50 of under 2.7.
